Measured values as given in PubChem BioAssay (NCI).
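Grown in 96-well plates, cells were treated for 48 hours with each compound at five concentrations. Insufficient inhibition: endpoint recorded as highest concentration tested. Definition used: TGI = concentration required for complete inhibition of growth.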

What was measured:
Assay in all cases: DTP human tumour cell line panel, 48 h
SNB-75 CNS = tested on: SNB-75 CNS
UO-31 renal = tested on: UO-31 renal
COLO 205 colon = tested on: COLO 205 colon
SF-539 CNS = tested on: SF-539 CNS
HCT-15 colon = tested on: HCT-15 colon
RPMI-8226 leukemia = tested on: RPMI-8226 leukemia
CAKI-1 renal = tested on: CAKI-1 renal
HOP-62 NSCLC = tested on: HOP-62 NSCLC
CCRF-CEM leukemia = tested on: CCRF-CEM leukemia
OVCAR-8 ovarian = tested on: OVCAR-8 ovarian
KM12 colon = tested on: KM12 colon
786-0 renal = tested on: 786-0 renal
K-562 leukemia = tested on: K-562 leukemia
NCI-H460 lung = tested on: NCI-H460 lung
NCI-H226 lung = tested on: NCI-H226 lung
SF-295 CNS = tested on: SF-295 CNS
DU-145 prostate = tested on: DU-145 prostate
MDA-MB-231 breast = tested on: MDA-MB-231 breast
MCF7 breast = tested on: MCF7 breast
BT-549 breast = tested on: BT-549 breast

Compound	TGI (SNB-75 CNS) [µM]	TGI (UO-31 renal) [µM]	TGI (COLO 205 colon) [µM]	TGI (SF-539 CNS) [µM]	TGI (HCT-15 colon) [µM]	TGI (RPMI-8226 leukemia) [µM]	TGI (CAKI-1 renal) [µM]	TGI (HOP-62 NSCLC) [µM]	TGI (CCRF-CEM leukemia) [µM]	TGI (OVCAR-8 ovarian) [µM]	TGI (KM12 colon) [µM]	TGI (786-0 renal) [µM]	TGI (K-562 leukemia) [µM]	TGI (NCI-H460 lung) [µM]	TGI (NCI-H226 lung) [µM]	TGI (SF-295 CNS) [µM]	TGI (DU-145 prostate) [µM]	TGI (MDA-MB-231 breast) [µM]	TGI (MCF7 breast) [µM]	TGI (BT-549 breast) [µM]
Cc1ccc(S(=O)(=O)c2c3[nH]c4ccccc4nc3n3c2nc2ccccc23)cc1	> 100	> 100	> 100	> 100	> 100	> 100	> 100	> 100	> 100	> 100	> 100	> 100	> 100	> 100						
CCCCCCCSCC1C(=O)C23C(O)C1CCC2C12COC3(O)C(O)C1C(C)(C)CCC2O (stereo not given)	49.2	23.5	15.1	29.3	22.4	27.3	15.7	37.9	14	31.1	23.9	26.7	15.8	29.8	33	33.4				
Clc1ccc(-c2nnc(C34CC5CC(CC(C5)C3)C4)o2)cc1	> 100	14.6	> 100	> 100	> 100	> 100	> 100	> 100	> 100	> 100		> 100	> 100	> 100	> 100	> 100	> 100	> 100		
COC(=O)CC1(O)C(/C=C/c2ccccc2)C(C(=O)OC)C(=O)C(C(=O)OC)C1C(=O)OC (stereo not given)		> 100	> 100	> 100	> 100	> 100	> 100	> 100	> 100	> 100	> 100	> 100	> 100	> 100	> 100	> 100	> 100	> 100	> 100	
CC(=O)OCC1OC(n2c(C)c(C(C)=O)c(-c3cccc4ccccc34)c(C#N)c2=S)C(OC(C)=O)C(OC(C)=O)C1OC(C)=O (stereo not given)	> 100	0.249	> 100	> 100	> 100		> 100	> 100	> 100	> 100	> 100	> 100	> 100	> 100	> 100	> 100	> 100	> 100	> 100	
CCN(CC)c1cccc2c1C1(O)CCC3(CC21)OCCCCO3 (stereo not given)	> 100	> 100	> 100	> 100	> 100	> 100	> 100	> 100	> 100	> 100	> 100	> 100	> 100	> 100	> 100	> 100				
Cc1cc(C)c(NS(=O)c2cccc(Cl)c2)c(C)c1 (stereo not given)		> 100	> 100	> 100	> 100	> 100		> 100	> 100	> 100	> 100	> 100	> 100	> 100	> 100	> 100	> 100		> 100	> 100
O=C1c2ccccc2-c2c1c(-c1ccccc1)c1n2C2(C(=O)c3ccccc3C2=O)C2C(=O)N(c3ccccc3)C(=O)C12 (stereo not given)	79.2	79.3	50.7	37.5	42.8		> 100	63.7	60	> 100	47.9	68.9		36.9	43.5	> 100	> 100		73.4	45.2
C=CCCCCCC(O)C(O)C/C=C\C/C=C\CC (stereo not given)	> 18.8	> 18.8	> 18.8	> 18.8	> 18.8	> 18.8	> 18.8	> 18.8	> 18.8	> 18.8	> 18.8	> 18.8	> 18.8	> 18.8	> 18.8	> 18.8				
CC1=NN(C(=O)c2ccc(Cl)cc2)C(=O)/C1=C/c1ccc(O)cc1		> 100	> 100	> 100	> 100	> 100	> 100	> 100	> 100	> 100	> 100	> 100	> 100	> 100	> 100	> 100				
CCOC(=O)/C=C/c1c[nH]c(C(=O)OCC)c1	> 100	> 100	> 100	> 100	> 100	> 100	> 100	> 100	> 100	> 100	> 100		> 100	> 100	> 100	> 100			> 100	
